According to ChEMBL document CHEMBL1201862, “PubChem BioAssay data set” (2004):
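All cell lines were grown in 96-well plates and treated with compound for 48 hours. GI50 marks 50% less growth.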 Active and inactive are the calls of the source. Cut-off read from the data, not from the text of the source: active = GI50 up to about 1.1 µM and inactive = higher.

Tests used:
Experiment in all cases: DTP human tumour cell line panel, 48 h
786-0 = system: 786-0
A498 = system: A498
A549 = system: A549
ACHN = system: ACHN
BT-549 = system: BT-549
CAKI-1 = system: CAKI-1
CCRF-CEM = system: CCRF-CEM
COLO 205 = system: COLO 205
DU-145 = system: DU-145
EKVX = system: EKVX
HCC 2998 = system: HCC 2998
HCT-116 = system: HCT-116
HCT-15 = system: HCT-15
HL-60 = system: HL-60
HOP-62 = system: HOP-62
HOP-92 = system: HOP-92
HT-29 = system: HT-29
Hs-578T = system: Hs-578T
IGROV-1 = system: IGROV-1
K562 = system: K562
KM12 = system: KM12
LOX IMVI = system: LOX IMVI
M14 = system: M14
MCF7 = system: MCF7
MDA-MB-231 = system: MDA-MB-231
MDA-MB-435 = system: MDA-MB-435
MDA-N = system: MDA-N
MOLT-4 = system: MOLT-4
Malme-3M = system: Malme-3M
NCI-H226 = system: NCI-H226
NCI-H23 = system: NCI-H23
NCI-H460 = system: NCI-H460
NCI-H522 = system: NCI-H522
NCI/ADR-RES = system: NCI/ADR-RES
OVCAR-4 = system: OVCAR-4
OVCAR-5 = system: OVCAR-5
OVCAR-8 = system: OVCAR-8
PC-3 = system: PC-3
RPMI-8226 = system: RPMI-8226
RXF 393 = system: RXF 393
SF-268 = system: SF-268
SF-295 = system: SF-295
SK-MEL-28 = system: SK-MEL-28
SK-MEL-2 = system: SK-MEL-2
SK-MEL-5 = system: SK-MEL-5
SK-OV-3 = system: SK-OV-3
SN12C = system: SN12C
SNB-19 = system: SNB-19
SR = system: SR
SW-620 = system: SW-620
T47D = system: T47D
TK-10 = system: TK-10
U-251 = system: U-251
UACC-257 = system: UACC-257
UACC-62 = system: UACC-62
UO-31 = system: UO-31
OVCAR-3 = system: OVCAR-3
SF-539 = system: SF-539
SNB-75 = system: SNB-75

SMILES: CCOC(=O)C1(C#N)C2(C#N)C(N)=NC(ON=C(C)C)(ON=C(C)C)C12C#N (centres undefined)
- GI50 (786-0): > 100 µM (inactive)
- GI50 (A498): > 100 µM (inactive)
- GI50 (A549): > 100 µM (inactive)
- GI50 (ACHN): > 100 µM (inactive)
- GI50 (BT-549): > 100 µM (inactive)
- GI50 (CAKI-1): > 100 µM (inactive)
- GI50 (CCRF-CEM): > 100 µM (inactive)
- GI50 (COLO 205): > 100 µM (inactive)
- GI50 (DU-145): > 100 µM (inactive)
- GI50 (EKVX): > 100 µM (inactive)
- GI50 (HCC 2998): > 100 µM (inactive)
- GI50 (HCT-116): > 100 µM (inactive)
- GI50 (HCT-15): > 100 µM
- GI50 (HL-60): > 100 µM (inactive)
- GI50 (HOP-62): > 100 µM (inactive)
- GI50 (HOP-92): > 100 µM (inactive)
- GI50 (HT-29): > 100 µM (inactive)
- GI50 (Hs-578T): > 100 µM (inactive)
- GI50 (IGROV-1): > 100 µM (inactive)
- GI50 (K562): > 100 µM (inactive)
- GI50 (KM12): > 100 µM (inactive)
- GI50 (LOX IMVI): > 100 µM (inactive)
- GI50 (M14): > 100 µM (inactive)
- GI50 (MCF7): > 100 µM (inactive)
- GI50 (MDA-MB-231): 62.4 µM (inactive)
- GI50 (MDA-MB-435): > 100 µM (inactive)
- GI50 (MDA-N): > 100 µM (inactive)
- GI50 (MOLT-4): > 100 µM (inactive)
- GI50 (Malme-3M): > 100 µM (inactive)
- GI50 (NCI-H226): > 100 µM (inactive)
- GI50 (NCI-H23): > 100 µM (inactive)
- GI50 (NCI-H460): > 100 µM (inactive)
- GI50 (NCI-H522): > 100 µM (inactive)
- GI50 (NCI/ADR-RES): > 100 µM (inactive)
- GI50 (OVCAR-4): > 100 µM (inactive)
- GI50 (OVCAR-5): > 100 µM (inactive)
- GI50 (OVCAR-8): > 100 µM (inactive)
- GI50 (PC-3): > 100 µM (inactive)
- GI50 (RPMI-8226): > 100 µM (inactive)
- GI50 (RXF 393): > 100 µM (inactive)
- GI50 (SF-268): > 100 µM (inactive)
- GI50 (SF-295): > 100 µM (inactive)
- GI50 (SK-MEL-28): > 100 µM (inactive)
- GI50 (SK-MEL-2): > 100 µM (inactive)
- GI50 (SK-MEL-5): > 100 µM (inactive)
- GI50 (SK-OV-3): > 100 µM (inactive)
- GI50 (SN12C): > 100 µM (inactive)
- GI50 (SNB-19): > 100 µM (inactive)
- GI50 (SR): > 100 µM (inactive)
- GI50 (SW-620): > 100 µM (inactive)
- GI50 (T47D): > 100 µM (inactive)
- GI50 (TK-10): > 100 µM (inactive)
- GI50 (U-251): > 100 µM (inactive)
- GI50 (UACC-257): > 100 µM (inactive)
- GI50 (UACC-62): > 100 µM (inactive)
- GI50 (UO-31): > 100 µM (inactive)

SMILES: COC(=O)[C@@H]1C[C@@H](O)CN1C(=O)c1ccc([N+](=O)[O-])cc1[N+](=O)[O-]
- GI50 (786-0): > 100 µM (inactive)
- GI50 (A498): > 100 µM (inactive)
- GI50 (A549): > 100 µM (inactive)
- GI50 (ACHN): > 100 µM (inactive)
- GI50 (BT-549): > 100 µM (inactive)
- GI50 (CAKI-1): > 100 µM (inactive)
- GI50 (CCRF-CEM): > 100 µM (inactive)
- GI50 (COLO 205): 50 µM (inactive)
- GI50 (DU-145): > 100 µM (inactive)
- GI50 (EKVX): > 100 µM (inactive)
- GI50 (HCC 2998): > 100 µM (inactive)
- GI50 (HCT-116): > 100 µM (inactive)
- GI50 (HCT-15): > 100 µM
- GI50 (HL-60): > 100 µM (inactive)
- GI50 (HOP-62): > 100 µM (inactive)
- GI50 (HOP-92): > 100 µM (inactive)
- GI50 (HT-29): 51.2 µM (inactive)
- GI50 (Hs-578T): > 100 µM (inactive)
- GI50 (IGROV-1): > 100 µM (inactive)
- GI50 (K562): > 100 µM (inactive)
- GI50 (KM12): > 100 µM (inactive)
- GI50 (LOX IMVI): > 100 µM (inactive)
- GI50 (M14): > 100 µM (inactive)
- GI50 (MCF7): > 100 µM (inactive)
- GI50 (MDA-MB-231): > 100 µM (inactive)
- GI50 (MDA-MB-435): > 100 µM (inactive)
- GI50 (MDA-N): > 100 µM (inactive)
- GI50 (MOLT-4): > 100 µM (inactive)
- GI50 (NCI-H226): > 100 µM (inactive)
- GI50 (NCI-H23): > 100 µM (inactive)
- GI50 (NCI-H460): > 100 µM (inactive)
- GI50 (NCI-H522): > 100 µM (inactive)
- GI50 (NCI/ADR-RES): > 100 µM (inactive)
- GI50 (OVCAR-3): 39.2 µM (inactive)
- GI50 (OVCAR-4): > 100 µM (inactive)
- GI50 (OVCAR-5): > 100 µM (inactive)
- GI50 (OVCAR-8): > 100 µM (inactive)
- GI50 (PC-3): > 100 µM (inactive)
- GI50 (RPMI-8226): > 100 µM (inactive)
- GI50 (RXF 393): > 100 µM (inactive)
- GI50 (SF-268): > 100 µM (inactive)
- GI50 (SF-295): > 100 µM (inactive)
- GI50 (SF-539): > 100 µM (inactive)
- GI50 (SK-MEL-28): > 100 µM (inactive)
- GI50 (SK-MEL-2): > 100 µM (inactive)
- GI50 (SK-MEL-5): 96.6 µM (inactive)
- GI50 (SK-OV-3): > 100 µM (inactive)
- GI50 (SN12C): > 100 µM (inactive)
- GI50 (SNB-19): > 100 µM (inactive)
- GI50 (SNB-75): > 100 µM (inactive)
- GI50 (SR): > 100 µM (inactive)
- GI50 (SW-620): > 100 µM (inactive)
- GI50 (T47D): > 100 µM (inactive)
- GI50 (TK-10): > 100 µM (inactive)
- GI50 (U-251): > 100 µM (inactive)
- GI50 (UACC-257): > 100 µM (inactive)
- GI50 (UACC-62): > 100 µM (inactive)
- GI50 (UO-31): > 100 µM (inactive)
